From PubChem BioAssay (NCI)
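1) Cells in 96-well plates. 2) Compound, 48 h, 5 concentrations. 3) Linear interpolation between surrounding doses. 4) Unreached endpoint = highest concentration. At the GI50, growth is halved. TGI: total growth inhibition.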

How the values were obtained:
Experiment in all cases: NCI anticancer screen, dose series, 48 h
786-0 renal = system: 786-0 renal
A498 renal = system: A498 renal
A549 NSCLC = system: A549 NSCLC
ACHN renal = system: ACHN renal
BT-549 breast = system: BT-549 breast
CAKI-1 renal = system: CAKI-1 renal
CCRF-CEM leukemia = system: CCRF-CEM leukemia
COLO 205 colon = system: COLO 205 colon
DU-145 prostate = system: DU-145 prostate
EKVX NSCLC = system: EKVX NSCLC
HCC-2998 colon = system: HCC-2998 colon
HCT-116 colon = system: HCT-116 colon
HCT-15 colon = system: HCT-15 colon
HL-60(TB) leukemia = system: HL-60(TB) leukemia
HOP-62 NSCLC = system: HOP-62 NSCLC
HOP-92 NSCLC = system: HOP-92 NSCLC
HS 578T breast = system: HS 578T breast
HT29 colon = system: HT29 colon
IGROV1 ovarian = system: IGROV1 ovarian
K-562 leukemia = system: K-562 leukemia
KM12 colon = system: KM12 colon
LOX IMVI melanoma = system: LOX IMVI melanoma
M14 melanoma = system: M14 melanoma
MALME-3M melanoma = system: MALME-3M melanoma
MCF7 breast = system: MCF7 breast
MDA-MB-231 breast = system: MDA-MB-231 breast
MDA-MB-435 = system: MDA-MB-435
MOLT-4 leukemia = system: MOLT-4 leukemia
NCI-H226 lung = system: NCI-H226 lung
NCI-H23 lung = system: NCI-H23 lung
NCI-H460 lung = system: NCI-H460 lung
NCI-H522 lung = system: NCI-H522 lung
NCI/ADR-RES ovarian = system: NCI/ADR-RES ovarian
OVCAR-3 ovarian = system: OVCAR-3 ovarian
OVCAR-4 ovarian = system: OVCAR-4 ovarian
OVCAR-5 ovarian = system: OVCAR-5 ovarian
OVCAR-8 ovarian = system: OVCAR-8 ovarian
PC-3 prostate = system: PC-3 prostate
RPMI-8226 leukemia = system: RPMI-8226 leukemia
RXF 393 renal = system: RXF 393 renal
SF-268 CNS = system: SF-268 CNS
SF-295 CNS = system: SF-295 CNS
SF-539 CNS = system: SF-539 CNS
SK-MEL-2 melanoma = system: SK-MEL-2 melanoma
SK-MEL-28 melanoma = system: SK-MEL-28 melanoma
SK-MEL-5 melanoma = system: SK-MEL-5 melanoma
SK-OV-3 ovarian = system: SK-OV-3 ovarian
SN12C renal = system: SN12C renal
SNB-19 CNS = system: SNB-19 CNS
SNB-75 CNS = system: SNB-75 CNS
SR leukemia = system: SR leukemia
SW-620 colon = system: SW-620 colon
T-47D breast = system: T-47D breast
TK-10 renal = system: TK-10 renal
U251 CNS = system: U251 CNS
UACC-257 melanoma = system: UACC-257 melanoma
UACC-62 melanoma = system: UACC-62 melanoma
UO-31 renal = system: UO-31 renal

`CCCCCCN(CCCCCC)CC(O)c1cccc2ccc(Cl)cc12` (stereo unspecified) showed a GI50 (786-0 renal) of 10.9 µM, a TGI (786-0 renal) of 23.7 µM and a GI50 (A498 renal) of 10.4 µM. For the same molecule, the TGI (A498 renal) was 22.3 µM, the GI50 (A549 NSCLC) was 12.2 µM and the TGI (A549 NSCLC) was 26.4 µM. For the same molecule, the GI50 (ACHN renal) was 5.89 µM, the TGI (ACHN renal) was 18.8 µM and the GI50 (BT-549 breast) was 14.1 µM. The TGI (BT-549 breast) was 28 µM, the GI50 (CAKI-1 renal) was 2.64 µM and the TGI (CAKI-1 renal) was 14.7 µM. It also gave a GI50 (CCRF-CEM leukemia) of 11.4 µM, a TGI (CCRF-CEM leukemia) of 31.7 µM and a GI50 (COLO 205 colon) of 3.82 µM. For the same molecule, the TGI (COLO 205 colon) was 14.9 µM, the GI50 (DU-145 prostate) was 11.6 µM and the TGI (DU-145 prostate) was 25 µM. It also gave a GI50 (EKVX NSCLC) of 10.5 µM, a TGI (EKVX NSCLC) of 25.5 µM and a GI50 (HCC-2998 colon) of 2.96 µM. It also gave a TGI (HCC-2998 colon) of 8.04 µM, a GI50 (HCT-116 colon) of 3.09 µM and a TGI (HCT-116 colon) of 14.2 µM. The GI50 (HCT-15 colon) was 5.01 µM, the TGI (HCT-15 colon) was 18.3 µM and the GI50 (HL-60(TB) leukemia) was 9.63 µM. For the same molecule, the TGI (HL-60(TB) leukemia) was 24.6 µM, the GI50 (HOP-62 NSCLC) was 3.71 µM and the TGI (HOP-62 NSCLC) was 14.5 µM. It also gave a GI50 (HOP-92 NSCLC) of 3.21 µM, a TGI (HOP-92 NSCLC) of 19.5 µM and a GI50 (HS 578T breast) of 8.36 µM. For the same molecule, the TGI (HS 578T breast) was 26.4 µM, the GI50 (HT29 colon) was 3.86 µM and the TGI (HT29 colon) was 18.5 µM. For the same molecule, the GI50 (IGROV1 ovarian) was 10.3 µM, the TGI (IGROV1 ovarian) was 23.8 µM and the GI50 (K-562 leukemia) was 4.87 µM. For the same molecule, the TGI (K-562 leukemia) was 20.9 µM, the GI50 (KM12 colon) was 5.48 µM and the TGI (KM12 colon) was 19.6 µM. It also gave a GI50 (LOX IMVI melanoma) of 4.14 µM, a TGI (LOX IMVI melanoma) of 15.6 µM and a GI50 (M14 melanoma) of 9.48 µM. The TGI (M14 melanoma) was 22 µM, the GI50 (MALME-3M melanoma) was 9.43 µM and the TGI (MALME-3M melanoma) was 22.4 µM. For the same molecule, the GI50 (MCF7 breast) was 7.52 µM, the TGI (MCF7 breast) was 20.3 µM and the GI50 (MDA-MB-231 breast) was 4.18 µM. The TGI (MDA-MB-231 breast) was 16.2 µM, the GI50 (MDA-MB-435) was 10.2 µM and the TGI (MDA-MB-435) was 29.4 µM. It also gave a GI50 (MOLT-4 leukemia) of 7.81 µM, a TGI (MOLT-4 leukemia) of 26.1 µM and a GI50 (NCI-H226 lung) of 4.89 µM. For the same molecule, the TGI (NCI-H226 lung) was 18.2 µM, the GI50 (NCI-H23 lung) was 5.42 µM and the TGI (NCI-H23 lung) was 19.5 µM. For the same molecule, the GI50 (NCI-H460 lung) was 6.63 µM, the TGI (NCI-H460 lung) was 19.6 µM and the GI50 (NCI-H522 lung) was 7.94 µM. It also gave a TGI (NCI-H522 lung) of 23 µM, a GI50 (NCI/ADR-RES ovarian) of 11.4 µM and a TGI (NCI/ADR-RES ovarian) of 25.1 µM. The GI50 (OVCAR-3 ovarian) was 13 µM, the TGI (OVCAR-3 ovarian) was 26 µM and the GI50 (OVCAR-4 ovarian) was 7.44 µM. It also gave a TGI (OVCAR-4 ovarian) of 33 µM, a GI50 (OVCAR-5 ovarian) of 2.6 µM and a TGI (OVCAR-5 ovarian) of 13.7 µM. It also gave a GI50 (OVCAR-8 ovarian) of 15.7 µM, a TGI (OVCAR-8 ovarian) of 32.7 µM and a GI50 (PC-3 prostate) of 9.59 µM. It also gave a TGI (PC-3 prostate) of 25 µM, a GI50 (RPMI-8226 leukemia) of 5.2 µM and a TGI (RPMI-8226 leukemia) of 22.4 µM. For the same molecule, the GI50 (RXF 393 renal) was 2.16 µM, the TGI (RXF 393 renal) was 7.71 µM and the GI50 (SF-268 CNS) was 12.4 µM. For the same molecule, the TGI (SF-268 CNS) was 27.1 µM, the GI50 (SF-295 CNS) was 6.32 µM and the TGI (SF-295 CNS) was 22.1 µM. For the same molecule, the GI50 (SF-539 CNS) was 1.58 µM, the TGI (SF-539 CNS) was 4.95 µM and the GI50 (SK-MEL-2 melanoma) was 10.2 µM. The TGI (SK-MEL-2 melanoma) was 24.6 µM, the GI50 (SK-MEL-28 melanoma) was 12 µM and the TGI (SK-MEL-28 melanoma) was 24.3 µM. It also gave a GI50 (SK-MEL-5 melanoma) of 2.12 µM, a TGI (SK-MEL-5 melanoma) of 5.17 µM and a GI50 (SK-OV-3 ovarian) of 11.3 µM. For the same molecule, the TGI (SK-OV-3 ovarian) was 23.4 µM, the GI50 (SN12C renal) was 10.7 µM and the TGI (SN12C renal) was 23.6 µM. It also gave a GI50 (SNB-19 CNS) of 12.9 µM, a TGI (SNB-19 CNS) of 26.6 µM and a GI50 (SNB-75 CNS) of 7.43 µM. The TGI (SNB-75 CNS) was 20.6 µM, the GI50 (SR leukemia) was 3.55 µM and the TGI (SR leukemia) was 9.85 µM. The GI50 (SW-620 colon) was 3.82 µM, the TGI (SW-620 colon) was 15 µM and the GI50 (T-47D breast) was 1.67 µM. For the same molecule, the TGI (T-47D breast) was 4.46 µM, the GI50 (TK-10 renal) was 12.4 µM and the TGI (TK-10 renal) was 25.4 µM. For the same molecule, the GI50 (U251 CNS) was 10.5 µM, the TGI (U251 CNS) was 23.5 µM and the GI50 (UACC-257 melanoma) was 12.9 µM. For the same molecule, the TGI (UACC-257 melanoma) was 28.7 µM, the GI50 (UACC-62 melanoma) was 8.11 µM and the TGI (UACC-62 melanoma) was 21.2 µM. The GI50 (UO-31 renal) was 4.85 µM and the TGI (UO-31 renal) was 19.7 µM.
